Results: patent US20240279236A1, “COMPOUNDS AND METHODS OF TREATING TUBERCULOSIS” (Fimbrion Therapeutics, Inc., priority 2021, published 2024)
pIC50: −log10 of the molar value.

The compounds below were run on WT Mtb Erdman strain (assay: Microplate Alamar Blue Assay (MABA), Mtb growth inhibition). Settings: Middlebrook 7H9 media, 7 days at 37° C. in 5% CO2.
Assay type: cell-based, Mycobacterium tuberculosis

Compound | pIC50
Cc1cc2c(N[C@@H]3C[C@H]3c3ccc(F)c(F)c3)nc(-c3ccc(=O)[nH]c3)nc2s1 [Example 490, 5-(4-(((1R,2S)-2-(3,4-difluorophenyl)cyclopropyl)amino)-6-methylthieno[2,3-d]pyrimidin-2-yl)pyridin-2(1H)-one] | < 5.04

Same assay, conditions: Mycobacterium tuberculosis, ERDMAN, 168 h, Middlebrook 7H9 media, 7 days at 37° C. in 5% CO2

Compound | pIC50
Cc1nc2c(NCCCc3ccc(-c4cnc(F)cn4)cc3)nc(Cl)nc2s1 [Example 470, 5-chloro-N-(3-(4-(5-fluoropyrazin-2-yl)phenyl)propyl)-2-methylthiazolo[5,4-d]pyrimidin-7-amine] | 6.48
Cc1cc2c(N[C@@H]3C[C@H]3c3ccc(F)c(F)c3)nc(-c3ccc(=O)[nH]c3)nc2s1 [Example 490, 5-(4-(((1R,2S)-2-(3,4-difluorophenyl)cyclopropyl)amino)-6-methylthieno[2,3-d]pyrimidin-2-yl)pyridin-2(1H)-one] | 5.33
Cc1cc2c(N[C@@H]3C[C@H]3c3ccc(F)c(F)c3)nc(-c3ccnc(N(C)C)c3)nc2s1 [Example 491, N-((1R,2S)-2-(3,4-difluorophenyl)cyclopropyl)-2-(2-(dimethylamino)pyridin-4-yl)-6-methylthieno[2,3-d]pyrimidin-4-amine] | 5.36
Cc1cc2c(N[C@@H]3C[C@H]3c3ccc(F)c(F)c3)nc(-c3ccc(S(C)(=O)=O)cc3)nc2s1 [Example 492, N-((1R,2S)-2-(3,4-difluorophenyl)cyclopropyl)-6-methyl-2-(4-(methylsulfonyl)phenyl)thieno[2,3-d]pyrimidin-4-amine] | < 5.00
Cc1cc2c(N[C@@H]3C[C@H]3c3ccc(F)c(F)c3)nc(-c3cncnc3)nc2s1 [Example 493, N-((1R,2S)-2-(3,4-difluorophenyl)cyclopropyl)-6-methyl-2-(pyrimidin-5-yl)thieno[2,3-d]pyrimidin-4-amine] | < 5.00
CNS(=O)(=O)c1ccccc1-c1nc(N[C@@H]2C[C@H]2c2ccc(F)c(F)c2)c2cc(C)sc2n1 [Example 494, 2-(4-(((1R,2S)-2-(3,4-difluorophenyl)cyclopropyl)amino)-6-methylthieno[2,3-d]pyrimidin-2-yl)-N-methylbenzenesulfonamide] | < 5.00
Cc1cc2c(N[C@@H]3C[C@H]3c3ccc(F)c(F)c3)nc(-c3ccccc3O)nc2s1 [Example 495, 2-(4-(((1R,2S)-2-(3,4-difluorophenyl)cyclopropyl)amino)-6-methylthieno[2,3-d]pyrimidin-2-yl)phenol] | < 5.00
COc1ccccc1-c1nc(N[C@@H]2C[C@H]2c2ccc(F)c(F)c2)c2cc(C)sc2n1 [Example 496, N-((1R,2S)-2-(3,4-difluorophenyl)cyclopropyl)-2-(2-methoxyphenyl)-6-methylthieno[2,3-d]pyrimidin-4-amine] | < 5.00
Cc1cc2c(N[C@@H]3C[C@H]3c3ccc(F)c(F)c3)nc(-c3ccc(O)cc3)nc2s1 [Example 497, 4-(4-(((1R,2S)-2-(3,4-difluorophenyl)cyclopropyl)amino)-6-methylthieno[2,3-d]pyrimidin-2-yl)phenol] | < 5.00
COc1ccc(-c2nc(N[C@@H]3C[C@H]3c3ccc(F)c(F)c3)c3cc(C)sc3n2)cc1 [Example 498, N-((1R,2S)-2-(3,4-difluorophenyl)cyclopropyl)-2-(4-methoxyphenyl)-6-methylthieno[2,3-d]pyrimidin-4-amine] | 5.39
Cc1cc2c(N[C@@H]3C[C@H]3c3ccc(F)c(F)c3)nc(-c3ccc(F)cc3F)nc2s1 [Example 499, 2-(2,4-difluorophenyl)-N-((1R,2S)-2-(3,4-difluorophenyl)cyclopropyl)-6-methylthieno[2,3-d]pyrimidin-4-amine] | 5.47
Cc1cc2c(N[C@@H]3C[C@H]3c3ccc(F)c(F)c3)nc(-c3ccc(F)c(F)c3)nc2s1 [Example 500, 2-(3,4-difluorophenyl)-N-((1R,2S)-2-(3,4-difluorophenyl)cyclopropyl)-6-methylthieno[2,3-d]pyrimidin-4-amine] | 5.44
Cc1cc2c(N[C@@H]3C[C@H]3c3ccc(F)c(F)c3)nc(-c3cccc(N(C)C)c3)nc2s1 [Example 501, N-((1R,2S)-2-(3,4-difluorophenyl)cyclopropyl)-2-(3-(dimethylamino)phenyl)-6-methylthieno[2,3-d]pyrimidin-4-amine] | < 5.00
C=Cc1nc(NCCCc2ccc(-c3ccc(OC(F)(F)F)cc3)cc2)c2cc(C)sc2n1 [Example 502, 2-ethenyl-6-methyl-N-(3-[4′-(trifluoromethoxy)-[1,1′-biphenyl]-4-yl]propyl)thieno[2,3-d]pyrimidin-4-amine] | 8.22
c1ccc(CCCNc2nc(N3CCOCC3)nc3sccc23)cc1 [Example 504, 2-morpholino-N-(3-phenylpropyl)thieno[2,3-d]pyrimidin-4-amine] | < 5.00
c1ccc(CCCNc2nc(NC3CC3)nc3sccc23)cc1 [Example 505, N2-cyclopropyl-N4-(3-phenylpropyl)thieno[2,3-d]pyrimidine-2,4-diamine] | 5.04
Cc1cc2c(NCCCc3ccc(OC(F)(F)F)cc3)nc(N3CCCC3)nc2s1 [Example 506, 6-methyl-2-(pyrrolidin-1-yl)-N-(3-(4-(trifluoromethoxy)phenyl)propyl)thieno[2,3-d]pyrimidin-4-amine] | 6.92
Cc1cc2c(NCCCc3ccccc3)nc(N3CCSCC3)nc2s1 [Example 507, 6-methyl-N-(3-phenylpropyl)-2-thiomorpholinothieno[2,3-d]pyrimidin-4-amine] | < 5.00
Cc1cc2c(NCCCc3ccccc3)nc(N3CCN(C)CC3)nc2s1 [Example 508, 6-methyl-2-(4-methylpiperazin-1-yl)-N-(3-phenylpropyl)thieno[2,3-d]pyrimidin-4-amine] | < 5.00

Compound | pIC50
Cc1cc2c(NCCCc3ccccc3)nc(N3CCC3)nc2s1 [Example 510, 2-(azetidin-1-yl)-6-methyl-N-(3-phenylpropyl)thieno[2,3-d]pyrimidin-4-amine] | 6.96
Cc1cc2c(NCCCc3ccccc3)nc(N3CC(F)(F)C3)nc2s1 [Example 511, 2-(3,3-difluoroazetidin-1-yl)-6-methyl-N-(3-phenylpropyl)thieno[2,3-d]pyrimidin-4-amine] | 6.24
Cc1cc2c(NCCCc3ccccc3)nc(N3CC(F)C3)nc2s1 [Example 512, 2-(3-fluoroazetidin-1-yl)-6-methyl-N-(3-phenylpropyl)thieno[2,3-d]pyrimidin-4-amine] | 6.21
Cc1cc2c(NCCCc3ccccc3)nc(N3CCC(F)(F)C3)nc2s1 [Example 513, 2-(3,3-difluoropyrrolidin-1-yl)-6-methyl-N-(3-phenylpropyl)thieno[2,3-d]pyrimidin-4-amine] | 6.64
Cc1cc2c(NCCCc3ccccc3)nc(N3CCC[C@H]3C)nc2s1 [Example 514, (R)-6-methyl-2-(2-methylpyrrolidin-1-yl)-N-(3-phenylpropyl)thieno[2,3-d]pyrimidin-4-amine] | 5.15
Cc1cc2c(NCCCc3ccccc3)nc(N3CCC(F)(F)CC3)nc2s1 [Example 515, 2-(4,4-difluoropiperidin-1-yl)-6-methyl-N-(3-phenylpropyl)thieno[2,3-d]pyrimidin-4-amine] | < 5.00
Cc1cc2c(NCCCc3ccccc3)nc(N3CCCC3)nc2s1 [Example 516, 6-methyl-N-(3-phenylpropyl)-2-(pyrrolidin-1-yl)thieno[2,3-d]pyrimidin-4-amine] | 6.96
Cc1cc2c(NCCCc3ccccc3)nc(N3CCCCC3)nc2s1 [Example 517, 6-methyl-N-(3-phenylpropyl)-2-(piperidin-1-yl)thieno[2,3-d]pyrimidin-4-amine] | 5.51
COC1CN(c2nc(NCCCc3ccccc3)c3cc(C)sc3n2)C1 [Example 518, 2-(3-methoxyazetidin-1-yl)-6-methyl-N-(3-phenylpropyl)thieno[2,3-d]pyrimidin-4-amine] | 5.72
Cc1cc2c(NCCCc3ccccc3)nc(N3CCSC3)nc2s1 [Example 519, 6-methyl-N-(3-phenylpropyl)-2-(thiazolidin-3-yl)thieno[2,3-d]pyrimidin-4-amine] | 6.05
CCN(CC)c1nc(NCCCc2ccccc2)c2cc(C)sc2n1 [Example 520, N2,N2-diethyl-6-methyl-N4-(3-phenylpropyl)thieno[2,3-d]pyrimidine-2,4-diamine] | < 5.00
CNc1nc(NCCCc2ccccc2)c2cc(C)sc2n1 [Example 521, N2,6-dimethyl-N4-(3-phenylpropyl)thieno[2,3-d]pyrimidine-2,4-diamine] | 6.60
Cc1cc2c(NCCCc3ccccc3)nc(NC3CC3)nc2s1 [Example 522, N2-cyclopropyl-6-methyl-N4-(3-phenylpropyl)thieno[2,3-d]pyrimidine-2,4-diamine] | 5.38
Cc1cc2c(N[C@@H]3C[C@H]3c3ccc(F)c(F)c3)nc(N3CCC(F)(F)C3)nc2s1 [Example 523, N-((1R,2S)-2-(3,4-difluorophenyl)cyclopropyl)-2-(3,3-difluoropyrrolidin-1-yl)-6-methylthieno[2,3-d]pyrimidin-4-amine] | 5.35
Cc1cc2c(N[C@@H]3C[C@H]3c3ccc(F)c(F)c3)nc(N3CC(F)(F)C3)nc2s1 [Example 524, 2-(3,3-difluoroazetidin-1-yl)-N-((1R,2S)-2-(3,4-difluorophenyl)cyclopropyl)-6-methylthieno[2,3-d]pyrimidin-4-amine] | < 5.00
CNc1nc(N[C@@H]2C[C@H]2c2ccc(F)c(F)c2)c2cc(C)sc2n1 [Example 525, N4-((1R,2S)-2-(3,4-difluorophenyl)cyclopropyl)-N2,6-dimethylthieno[2,3-d]pyrimidine-2,4-diamine] | 5.32
Cc1cc2c(N[C@@H]3C[C@H]3c3ccc(F)c(F)c3)nc(NC3COC3)nc2s1 [Example 526, N4-((1R,2S)-2-(3,4-difluorophenyl)cyclopropyl)-6-methyl-N2-(oxetan-3-yl)thieno[2,3-d]pyrimidine-2,4-diamine] | < 5.00
Cc1cc2c(N[C@@H]3C[C@H]3c3ccc(F)c(F)c3)nc(N)nc2s1 [Example 527, N4-((1R,2S)-2-(3,4-difluorophenyl)cyclopropyl)-6-methylthieno[2,3-d]pyrimidine-2,4-diamine] | < 5.00
Cc1cc2c(NCCCc3ccc(-c4ccc(OC(F)(F)F)cc4)cc3)nc(N3CCCC3)nc2s1 [Example 528, 6-methyl-2-(pyrrolidin-1-yl)-N-(3-(4′-(trifluoromethoxy)-[1,1′-biphenyl]-4-yl)propyl)thieno[2,3-d]pyrimidin-4-amine] | 7.74
